The results in this text go back to US20260091051A1, “USE OF NMN FOR THE PREVENTION AND/OR TREATMENT OF PAIN, AND CORRESPONDING COMPOSITIONS” (Nuvamid SA, priority 2019, published 2026).

Like-named read-outs stand apart in the source and are kept apart here.

The subject of series [1] is acute cystitis induced by cyclophosphamide (CYP) in female Sprague-Dawley rats. The following applies: for nociceptive scores (CYP-induced visceral pain) / nociceptive threshold (CYP-induced allodynia): 500 mg/kg p.o., 15 min before CYP 150 mg/kg i.p.; for nociceptive scores (CYP-induced visceral pain): vs carrier; for visceral pain induced by the CYP (conclusion): single oral treatment 500 mg/kg. How it is done: Animals: Sprague-Dawley female rats, 7 weeks old as of their birth
Acute Cystitis Induced by CYP: The CYP was injected via intraperitoneal injection at 150 mg/kg in a final volume of 5 ml/kg of saline solution.
The rats were placed in individual Plexiglas boxes with a metal wire mesh floor and allowed to adapt to the chamber for a period of at least 30 minutes prior to the commencement of any testing. Eight von Frey filaments with increasing levels of force viz 1, 2, 4, 6, 8, 10, 15, and 26 g were used. Each calibrated filament was applied 3 times to the lower abdominal area, near the bladder.
• Score 0=no response • Score 1=retraction of the abdomen • Score 2=stamping or changing of position • Score 3=wheezing or squealing, or abdominal curvature, or licking of the site stimulated with von Frey filaments
For each rat, the results were expressed as follows: • Nociceptive threshold: first von Frey force level for which the stimulus is perceived as being painful (the score ≥1 is obtained)=>lowered threshold=allodynia • Nociceptive score: % of the maximum response (total=9 for 3 combined applications) for each filament=>Overall response to pain
Experimental Groups (6 Rats Per Group): • Group 1: Carrier (5 ml/kg)+CYP • Group 2: NMN (500 mg/kg)+CYP • Group 3: Compound A (500 mg/kg)+CYP • Group 4: Compound B (500 mg/kg)+CYP

Series [2] deals with cyclophosphamide-induced cystitis (visceral nociceptive pain) in female Sprague-Dawley rats. Nature of the series: Visceral pain model of cyclophosphamide-induced cystitis in rats, von Frey filaments (Example 1). The series is classed as in vivo, rat. The following applies: for nociceptive threshold (threshold of tolerance to pain, allodynia): CYP-treated rats; for nociceptive threshold (threshold of tolerance to pain, allodynia) / nociceptive score: NMN 500 mg/kg or ibuprofen 300 mg/kg oral. The protocol:
The effectiveness of the use of NMN according to the invention was evaluated in rats in a model of nociceptive pain. More precisely, the model used is a visceral pain model. The administration of cyclophosphamide (CYP) serves as the means to simulate cystitis in rats.
The positive control is ibuprofen, a non-steroidal anti-inflammatory drug frequently prescribed to relieve nociceptive pain. The negative control is the carrier for NMN and ibuprofen, that is to say, distilled water.
For this study, 7-week-old female Sprague-Dawley rats were divided into three groups, each group comprising of 6 rats: • a control group who received 5 ml of distilled water (carrier); • a group treated with NMN at 500 mg/kg; and • a group treated with ibuprofen at 300 mg/kg.
The NMN is in the form of zwitterion.
After 24 hours of adaptation, a test to measure the threshold of pain tolerance of each animal was carried out with von Frey filaments prior to the start of the study. This measurement prior to any exposure to a painful stimulus makes it possible to obtain the baseline pain tolerance threshold level in the animals and serves as a negative control.
Von Frey filaments are used as a device for measuring the sensitivity of the skin to touch. The use of von Frey filaments makes it possible to test for allodynia and hyperalgesia in rodents. Briefly put, each filament corresponds to a given force. The filaments are applied in ascending order of increasing force to the animal's skin. The rodents in effect have a reflex to withdraw when an unexpected contact occurs. The withdrawal in response to a force exerted on the rodent is indicative of the animal's threshold of tolerance to pain. The use of von Frey filaments is commonly implemented for measurement of pain in rodents (Deuis J R, Dvorakova L S and Vetter I (2017) Methods Used to Evaluate Pain Behaviors in Rodents. Front. Mol. Neurosci. 10:284.).
In the present study, eight filaments in ascending order of increasing force, of 1 g, 2 g, 4 g, 6 g, 8 g, 10 g, 15 g, and 26 g, were used and applied three times each to the animal's abdomen, near the bladder. The animal's response was assessed as follows: • score 0: no response • score 1: retraction of the abdomen • score 2: stamping or changing of position of the animal • score 3: twitching, or curving or rounding of the abdomen, or licking of the area stimulated by the von Frey filament.
For each rat, the results are expressed as follows: • nociceptive threshold: first force level at which a response from the animal is observed (response score greater than or equal to 1). This indicates the lowest threshold of tolerance to pain for measuring allodynia; • nociceptive score: percentage of the maximum response for each filament. This indicates the overall pain response.
The animals of each of the groups receive either the carrier, or NMN at 500 mg/kg, or ibuprofen at 300 mg/kg administered via the oral route. After administration of the compounds to be tested (carrier, NMN, or ibuprofen), cyclophosphamide is injected via the intraperitoneal route into each rat. The cyclophosphamide induces strong inflammation in the bladder and simulates a pain induced by a urinary tract infection such as cystitis.
The test with the von Frey filaments is repeated at 2 hr and then subsequently at 4 hr after injection of the cyclophosphamide in order to measure the pain response of the animals.
The results were analysed by a one-way analysis of variance (ie one-way ANOVA) test supplemented by a Dunnett's test or by a two-way ANOVA analysis. With regard to statistical significance, * signifies that p<0.05, ** signifies that p<0.01, and *** signifies that p<0.001, as compared to the group treated with the carrier.

Where [3] appears, read: T=2 h after CYP injection, vs carrier (FIG. 3B).
Where [4] appears, read: T=4 h after CYP injection, vs carrier (FIG. 3C).

As for `NC(=O)c1ccc[n+]([C@H]2O[C@H](COP(=O)([O-])O)[C@@H](O)[C@H]2O)c1` [Compound A, alpha nicotinamide mononucleotide], the “nociceptive scores (CYP-induced visceral pain)” value is recorded as “decrease in the nociceptive scores” in series [1] (+2 hr) and “only achieved the level of statistical significance at +4 h” in series [1] (+4 hr). In addition, the “nociceptive threshold (CYP-induced allodynia)” value in series [1] (+2 hr, vs carrier (FIG. 6A)) was “increase in the nociceptive threshold”; in series [1] (+4 hr, vs carrier (FIG. 6B)), “significant at +4 hr”. Also, the “visceral pain induced by the CYP (conclusion)” value (“visceral pain induced” for short) in series [1] (+2 hr) is on record as “reduced the visceral pain”; in series [1] (+4 hr) it was “only achieving the level of significance at +4 hr”.
Take `NC(=O)c1ccc[n+]([C@@H]2O[C@H](COP(=O)([O-])O)[C@@H](O)[C@H]2O)c1` [NMN, nicotinamide mononucleotide]: the “nociceptive scores (CYP-induced visceral pain)” value in series [1] (+2 hr) and in series [1] (+4 hr) was “significant decrease in the nociceptive scores” in each case. In addition, the “nociceptive threshold (CYP-induced allodynia)” value in series [1] (+2 hr, vs carrier (FIG. 6A)) is recorded as “slight increase in the nociceptive threshold”; in series [1] (+4 hr, vs carrier (FIG. 6B)) it was “slight increase in the nociceptive threshold”. In addition, the “visceral pain induced” value in series [1] (+2 hr) and in series [1] (+4 hr) was “relieved the visceral pain” each time. Further, the “nociceptive threshold (threshold of tolerance to pain, allodynia)” value in series [2] (T0, vs carrier (FIG. 3A)) is recorded as “increase the response threshold to nociceptive pain significantly”; in series [2] (setting [3]), “increase the response threshold to nociceptive pain significantly”; in series [2] (setting [4]), “increase the response threshold to nociceptive pain significantly”. Further, the nociceptive score result in series [2] (2 hours after CYP (FIG. 4B)) and in series [2] (4 hours after CYP (FIG. 4C)) was “reducing the nociceptive score” throughout.
Consider `O=P1(N(CCCl)CCCl)NCCCO1` (stereo not shown) [cyclophosphamide, reference compound], for which, in series [1] (CYP 150 mg/kg i.p., carrier-treated group, 2 hours and 4 hours post injection (FIG. 2A)), the “nociceptive threshold after CYP vs baseline response” value was “significant decrease in the nociceptive threshold”. Besides, the “nociceptive scores after CYP vs baseline response” value in series [1] (CYP 150 mg/kg i.p., carrier-treated group, 2 hours and 4 hours post injection (FIG. 2B)) is on record as “significant increase in the nociceptive scores”. The “pain tolerance threshold (nociceptive threshold) after cyclophosphamide” value in series [2] (carrier-treated rats, intraperitoneal cyclophosphamide, 10 g before administration (FIG. 1B)) is given as 3 g.
As to `CC(C)Cc1ccc(C(C)C(=O)O)cc1` (stereo not shown) [ibuprofen], the “nociceptive threshold (threshold of tolerance to pain, allodynia)” value in series [2] (T0, vs carrier (FIG. 3A)) is listed as “significantly increase the threshold of tolerance to pain”; in series [2] (setting [3]) it was “significantly increase the threshold of tolerance to pain”; in series [2] (setting [4]), “significantly increase the threshold of tolerance to pain”. Besides, the nociceptive score entry in series [2] (2 hours after CYP (FIG. 4B)) and in series [2] (4 hours after CYP (FIG. 4C)) was “reducing the nociceptive score” throughout.
Take di-NMN [Compound B]: the “nociceptive scores (CYP-induced visceral pain)” value in series [1] (+2 hr) was “no effect was observed”; in series [1] (+4 hr), “significant decrease in the nociceptive scores”. The “nociceptive threshold (CYP-induced allodynia)” value in series [1] (+2 hr, vs carrier (FIG. 6A)) is on record as “no effect”; in series [1] (+4 hr, vs carrier (FIG. 6B)) it was “significant increase in the nociceptive threshold”. The “visceral pain induced” value is listed as “no beneficial effect” in series [1] (+2 hr) and “significant anti-nociceptive activity” in series [1] (+4 hr).
